In patent publication US10737995B2, “Nuclear receptor modulators and their use for the treatment and prevention of cancer” (The United States of America, as represented by the …, priority 2011, dated 2020):

Tests used:
[1] = test system: R1881-induced AR translocation to the nucleus; assay: AR translocation, immunocytochemistry in LNCaP cells; type: cell-based, human; settings: 10 μM for three hours, then 1 nM R1881 for three hours (FIG. 7)
Method: FIG. 7 is a graph showing the results of an AR translocation experiment. LNCaP cells were incubated on cover slips in phenol red free RPMI 1640 with 10% charcoal stripped FBS and 1% antimycotic-antibiotic solution for three days. Cells were treated with DMSO, bicalutamide (10 μM) or Compound 11 for three hours, followed by treatment with 1 nM R1881 for three hours. Cells were washed with PBS, fixed with 0.4% paraformaldehyde for 30 min at 37° C., washed with PBS, permeabilized with 0.4% Triton X-100 for 10 min, and then stained with anti-AR antibody (1:100 dilution, Santa Cruz Biotechnology, Santa Cruz, Calif.) for 1 hour at room temperature. After washing with PBS, cells were stained with FITC-labeled goat anti-rabbit IgG (1:200 dilution, BD Biosciences, San Jose, Calif.) for 1 hour at room temperature. After washing with PBS, cells were incubated for 10 min with Hoechst 33342 for nuclear staining, washed, and the dried cover slips were mounted on glass slides with SlowFade Gold anti-fade reagent (Invitrogen). Fluorescence images were obtained using a Leica® DM IRB fluorescence microscope, and nuclear-to-cytoplasmic AR ratios were measured using OpenLab® (Perkin Elmer, Waltham, Mass.) software. […]

[2] = test system: TMPRSS2 mRNA expression in LNCaP cells; assay: TMPRSS2 mRNA expression in LNCaP cells, real time RT-PCR; type: cell-based, human; settings: for block of R1881-induced TMPRSS2 mRNA induction: in the presence of R1881, dose-dependent manner (FIG. 6); for inhibition of TMPRSS2 mRNA: LNCaP cells (FIG. 12)
Method: (§1) LNCaP cells were incubated for 3 days in phenol red-free RPMI 1640 supplemented with 10% charcoal-stripped FBS and 1% antimycotic-antibiotic solution, and then cells were treated for 20 hours. The concentration of R1881 was 0.5 nM, and that of the corresponding compounds was 10, 5 or 1 μM, respectively. Compound 49 inhibited PSA mRNA expression 80% in the presence of R1881 at 5 μM. This activity was similar to bicalutamide.
(§2) For PSA, TMPRSS2, and UBE2C mRNA determination, LNCaP cells or 22Rv1 cells, were cultured and treated with the corresponding compounds for 20 hours in the presence or absence of the synthetic androgen R1881. Total RNA was isolated from cultured cells using the RNeasy RNA Isolation Kit (Qiagen). The RNAs were reverse transcribed immediately after RNA extraction with the High Capacity cDNA Reverse Transcription Kit (Applied Biosystems), using random primers included in the kit, according to the manufacturer's instructions. The cDNA products were stored at −20° C. until the PCR analysis was performed. Real-time PCR primers were designed using Primer Express Applications (Applied Biosystems). The primer sequences for real-time PCR were as follows:
(§3) The mRNA level and total protein in cells were measured after treatment with either control, bicalutamide (0.08 μM to 1.25 μM), or MDV3100 (an antiandrogen) and either about 2.5 μM or about 1.0 μM of Compounds 1-117 respectively. It was known that the expression of PSA mRNA in LNCaP cells is driven by an AR mediated pathway. While PSA is androgen-dependent AR-target gene, UBE2C is androgen-independent AR-target gene. The PSA, TMPRSS2 and UBE2C mRNA levels were normalized by the rRNA level.

[3] = test system: PSA mRNA expression in LNCaP cells; assay: PSA mRNA expression in LNCaP cells, real time RT-PCR; type: cell-based, human; settings: for block of R1881-induced PSA mRNA induction: in the presence of R1881, dose-dependent manner (FIG. 6); for inhibition of PSA mRNA: LNCaP cells (FIG. 12); for inhibition of PSA mRNA expression: 500 nM (FIG. 9); for agonistic effects on PSA and TMPRSS2 mRNA levels: dose dependent study (FIG. 9)
Method: FIG. 3 is a graph showing the inhibition of PSA mRNA expression. […] As shown in the graph, a hit was identified that inhibited over 90% PSA mRNA expression in LNCaP cells at 10 μM after 20 hours of treatment.
as §1, §2, §3

[4] = test system: UBE2C mRNA expression in 22Rv1 cells; assay: UBE2C mRNA expression in 22Rv1 cells, real time RT-PCR; type: cell-based, human; settings: 22Rv1 cells (FIG. 13)
Method: as §2, §3

[5] = test system: UBE2C mRNA expression in LNCaP cells; assay: UBE2C mRNA expression in LNCaP cells, real time RT-PCR; type: cell-based, human; settings: LNCaP cells (FIG. 12)
Method: as §2, §3

LNCaP cells = assay: LNCaP cell growth, Trypan blue viable cell count; type: cell-based; settings: Homo sapiens, 72 h, 3 days incubation, Trypan blue viable cell number, read-out: IC50 of LNCaP cell growth inhibition
Method: LNCaP cells were incubated with Compound 49 for 3 days. Viable cell number was determined by Trypan blue staining and counting in a hemocytometer. The IC50 value of Compound 49 was 3 μM.

[6] = test system: PSA mRNA expression in 22Rv1 cells; assay: PSA mRNA expression in 22Rv1 cells, real time RT-PCR; type: cell-based, human
Method: as §2
[…] It was known that the expression of PSA mRNA in LNCaP cells is driven by an AR mediated pathway. While PSA is androgen-dependent AR-target gene, UBE2C is androgen-independent AR-target gene. The PSA, TMPRSS2 and UBE2C mRNA levels were normalized by the rRNA level.

AR in LNCaP cells = assay: AR Western blot, LNCaP cells treated 6 hours; type: cell-based, human; settings: 10 μM (data not shown)
Method: LNCaP cells were maintained as above. At 50% confluence, cells were washed several times in serum-free RPMI-1640 medium, and re-cultured for 72 hours in RPMI-1640 medium containing 10% charcoal-stripped fetal bovine serum. Cells were treated with R1881 (0.5 nM), with, or without 10 μM, 5 μM or 1 μM of Compounds 1-117, and then cells were cultured for 20 hours. Nuclear and cytoplasmic protein fractionation was performed using NE-PER Nuclear and Cytoplasmic Extraction Reagents Kit (Thermo Scientific Pierce Protein Research Products) according to the manufacturer's instructions. Quantification of AR in nucleus and cytosol was performed by Western blotting with an AR-specific antibody following polyacrylamide gel electrophoresis.
LNCaP cells were also tested after treatment for only 6 hours. Compounds 49, 80 and 86, as well as KU135 (a C-terminal Hsp90 inhibitor) and 17-AAG (a known AR degradation inducer), were tested at 2.5, 5, and 10 μM as well as control (DMSO vehicle). […] LAPC-4 cells (a human prostate cancer cell line with wt AR) were tested against Compounds 80, 86, KU-32 (another C-terminal Hsp90 inhibitor) and 17-AAG.

[7] = test system: genome-wide transcriptional response; assay: Microarray analysis of genome-wide transcriptional response; type: cell-based, human
Method: This example illustrates that Compound 86 has an impact on AR-driven gene expression (PSA) and androgen-independent AR-driven gene expression (e.g., UBE2C). A microarray analysis was performed on the genome-wide transcriptional response to Compound 86 compared with the antiandrogens bicalutamide and MDV3100, and solvent DMSO. Each compound was tested at two concentrations: 1 and 5 μM. The data were subjected to bioinformatics analysis using the Partek Genomics Software. […] FIG. 19B depicts a different view in 3-dimensional space again reinforcing the differences between Compound 86 versus DMSO, bicalutamide and MDV3100. This visual assessment is consistent with the data showing that Compound 86 and not DMSO, bicalutamide, or MDV3100, can inhibit the androgen-independent, androgen receptor-dependent transcriptional program of castrate-resistant prostate cancer.

[8] = test system: TMPRSS2 mRNA expression in 22Rv1 cells; assay: TMPRSS2 mRNA expression in 22Rv1 cells, real time RT-PCR; type: cell-based, human; settings: 22Rv1 cells (FIG. 13)
Method: as §2, §3

[9] = LNCaP cells, synthetic androgen R1881 (FIG. 6)

For `COc1ccc(C(=O)/C=C/c2ccc([N+](=O)[O-])cc2)c(OC)c1OC` [Compound 11], which “inhibition of R1881-induced AR translocation to the nucleus (nuclear-to-cytoplasmic AR ratio)” value [1] is on record?
The value was “markedly more active than bicalutamide”.

What about the “block of R1881-induced TMPRSS2 mRNA induction” value [2] of the same molecule?
The value was “blocked”.

And the “block of R1881-induced PSA mRNA induction” value [3]?
The value was “blocked”.

With `COc1ccc(C(=O)/C=C/c2cccc([N+](=O)[O-])c2)c(OC)c1OC` [Compound 12] as the molecule, how does the “block of R1881-induced TMPRSS2 mRNA induction” value [2] read?
Its value is “blocked”.

What about the “agonistic effect on AR target gene expression” value ([3]; 1 μM, PSA and TMPRSS2, in the presence of R1881 (FIG. 6)) of the same molecule?
The value was “weak agonistic effect”.

And the “activity in blocking R1881-induced AR target gene expression relative to Compound 11” value ([3]; high concentrations, PSA and TMPRSS2, in the presence of R1881)?
Its value is “more active”.

What about the “block of R1881-induced PSA mRNA induction” value [3] of the same molecule?
Its value is “blocked”.

How did the “inhibition of UBE2C mRNA expression” value [4] turn out when `COc1ccccc1C(=O)/C=C/c1ccccc1[N+](=O)[O-]` [Compound 49] was run?
Its value is “completely failed to inhibit”.

And the “inhibition of UBE2C mRNA” value [5]?
The value was “not effective”.

What about the “inhibition of TMPRSS2 mRNA” value [2] of the same molecule?
The value was “inhibited”.

What about the “inhibition of PSA mRNA” value [3] of the same molecule?
Its value is “inhibited”.

And the “inhibition of PSA mRNA expression in the presence of R1881” value ([3]; LNCaP cells, 0.5 nM R1881, 5 μM, 20 hours (FIG. 10))?
The value was 80%.

And the “inhibition of PSA mRNA expression” value ([3]; LNCaP cells)?
Its value is 50%.

And the “agonistic effects on PSA and TMPRSS2 mRNA levels” value ([3]; LNCaP cells)?
Its value is “No agonistic effects”.

And the IC50 (LNCaP cells)?
The IC50 was 3000 nM.

What about the “inhibition of PSA mRNA expression compared to control” value ([6]; 22Rv1 cells (FIG. 13)) of the same molecule?
The value was 80%.

With `COc1cc(C(=O)/C=C/c2cccc([N+](=O)[O-])c2)cc(OC)c1OC` [Compound 80] as the molecule, how does the “inhibition in AR Western blot” value (AR in LNCaP cells) read?
The value was “showed inhibition”.

With `COc1ccc(C(=O)/C=C/c2ccc(C#N)cc2)cc1OC` [Compound 103] as the molecule, how does the “inhibition of UBE2C mRNA” value [5] read?
The value was “not effective”.

And the “inhibition of TMPRSS2 mRNA” value [2]?
The value was “inhibited”.

What about the “inhibition of PSA mRNA” value [3] of the same molecule?
The value was “inhibited”.

What about the “inhibition of PSA mRNA expression” value ([3]; LNCaP cells) of the same molecule?
The value was 50%.

And the “agonistic effects on PSA and TMPRSS2 mRNA levels” value ([3]; LNCaP cells)?
The value was “No agonistic effects”.

Which results are given for `C[C@]1(O)CC[C@H]2[C@@H]3CCC4=CC(=O)CCC4=C3C=C[C@@]21C` [Compound R1881, methyltrienolone, reference compound]?
TMPRSS2 mRNA induction compared with the DMSO control [2, 9]: ~30 fold; PSA mRNA induction compared with the DMSO control [3, 9]: about 500 fold

What does the source list for `CNC(=O)c1ccc(N2C(=S)N(c3ccc(C#N)c(C(F)(F)F)c3)C(=O)C2(C)C)cc1F` [MDV3100, 4-(3-(4-cyano-3-(trifluoromethyl)phenyl)-5,5-dimethyl-4-oxo-2-thioxoimidazolidin-1-yl)-2-fluoro-N-methylbenzamide]?
inhibition of the androgen-independent, androgen receptor-dependent transcriptional program of castrate-resistant prostate cancer [7]: not; sensitivity of PSA mRNA expression ([6]; 22Rv1 cells, 20 hours of exposure, 10 μM (FIG. 14)): insensitive

What does the source list for `CC(O)(CS(=O)(=O)c1ccc(F)cc1)C(=O)Nc1ccc(C#N)c(C(F)(F)F)c1` (stereo not drawn) [bicalutamide, reference compound]?
inhibition of UBE2C mRNA expression [4]: No inhibition; inhibition of TMPRSS2 mRNA expression [8]: No inhibition; IC50 ([3]; Homo sapiens, LNCaP cells, dose-dependent study (FIG. 4), read-out: IC50 of PSA mRNA inhibition): 300 nM; inhibition of PSA mRNA expression ([6]; 22Rv1 cells (FIG. 13)): No inhibition
